According to patent US10766869B2, “Triazoles for the treatment of demyelinating dieases” (Vertex Pharmaceuticals Incorporated, priority 2015, dated 2020):

Test system: primary rat mixed cortical cells
Experiment: In vitro myelination assay (MBP positive myelin strands, fold myelin pixels above background)
Assay type: cell-based
Conditions: Rattus norvegicus, relative to baseline of no added compound, read-out: Fold myelin pixels above background; for fold induction at 1 µM: 1.0 μM compound; for fold induction at 10 µM: 10.0 μM compound
In short: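 Read-out is total MBP-positive myelin strand pixels per well, detected by custom ridge-tracing software and reported as fold over untreated baseline. Primary P1 rat mixed cortical cells received compound (1.0 or 10.0 μM) for 14 days, with medium half-replaced on days 6 and 10. Standard deviation was taken across all replicates.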

**Q.** Which results are given for `Cc1cc(Nc2ncn(-c3cc(F)cc(F)c3)n2)cc(N2CCN([C@@H]3CCOC3)CC2)c1` [Compound 531, 1-(3,5-difluorophenyl)-N-[3-methyl-5-[4-[(3R)-tetrahydrofuran-3-yl]piperazin-1-yl]phenyl]-1,2,4-triazol-3-amine]?
**A.** fold induction at 1 µM: 100 to 1000; fold induction at 10 µM: 100 to 1000

**Q.** What does the source list for `FC(F)c1cc(Nc2ncn(-c3ccccn3)n2)nc(N2CCN(C3COC3)CC2)c1` [Compound 532, 4-(difluoromethyl)-6-[4-(oxetan-3-yl)piperazin-1-yl]-N-[1-(2-pyridyl)-1,2,4-triazol-3-yl]pyridin-2-amine]?
**A.** fold induction at 1 µM: 10 to 100; fold induction at 10 µM: 10 to 100

**Q.** What does the source list for `Cc1cc(Nc2ncn(-c3cc(F)cc(F)c3)n2)nc(N2CCN(C(=O)OC(C)(C)C)CC2)c1` [Compound 533, tert-butyl 4-[6-[[1-(3,5-difluorophenyl)-1,2,4-triazol-3-yl]amino]-4-methyl-2-pyridyl]piperazine-1-carboxylate]?
**A.** fold induction at 1 µM: 10 to 100; fold induction at 10 µM: 1 to 10

**Q.** For `CC(=O)OCC(C)(CO)N1CCN(c2cc(C)cc(Nc3ncn(-c4cc(F)cc(F)c4)n3)c2)CC1` (stereo not drawn) [Compound 534, [2-[4-[3-[[1-(3,5-difluorophenyl)-1,2,4-triazol-3-yl]amino]-5-methyl-phenyl]piperazin-1-yl]-3-hydroxy-2-methyl-propyl] acetate], which fold induction at 1 µM is on record?
**A.** Its fold induction at 1 µM is 1 to 10.

**Q.** What about the fold induction at 10 µM of the same molecule?
**A.** The fold induction at 10 µM was at most 1.

**Q.** For `Cc1cc(Nc2ncn(-c3cncnc3)n2)cc(N2CCN(C3COC3)CC2)c1` [Compound 535, N-[3-methyl-5-[4-(oxetan-3-yl)piperazin-1-yl]phenyl]-1-pyrimidin-5-yl-1,2,4-triazol-3-amine], which fold induction at 1 µM is on record?
**A.** Its fold induction at 1 µM is 1 to 10.

**Q.** What about the fold induction at 10 µM of the same molecule?
**A.** The fold induction at 10 µM was 1 to 10.

**Q.** How did the fold induction at 1 µM turn out when `CC(C)c1cc(Nc2ncn(-c3cnccn3)n2)cc(N2CCN(C3COC3)CC2)c1` [Compound 536, N-[3-isopropyl-5-[4-(oxetan-3-yl)piperazin-1-yl]phenyl]-1-pyrazin-2-yl-1,2,4-triazol-3-amine] was run?
**A.** The fold induction at 1 µM was 100 to 1000.

**Q.** What about the fold induction at 10 µM of the same molecule?
**A.** Its fold induction at 10 µM is 100 to 1000.

**Q.** With `Cc1cc(Nc2ncn(-c3cc(F)cc(F)c3)n2)nc(N2CC(N3CCOCC3)C2)c1` [Compound 537, N-[1-(3,5-difluorophenyl)-1,2,4-triazol-3-yl]-4-methyl-6-(3-morpholinoazetidin-1-yl)pyridin-2-amine] as the molecule, how does the fold induction at 1 µM read?
**A.** Its fold induction at 1 µM is 1 to 10.

**Q.** And the fold induction at 10 µM?
**A.** Its fold induction at 10 µM is at most 1.

**Q.** `Cc1cc(Nc2ncn(-c3cccc(F)c3)n2)nc(N2CC(N3CCOCC3)C2)c1` [Compound 538, N-[1-(3-fluorophenyl)-1,2,4-triazol-3-yl]-4-methyl-6-(3-morpholinoazetidin-1-yl)pyridin-2-amine] was tested. Which fold induction at 1 µM did it give?
**A.** Its fold induction at 1 µM is 1 to 10.

**Q.** And the fold induction at 10 µM?
**A.** Its fold induction at 10 µM is 1 to 10.

**Q.** Which results are given for `c1cnc(-n2cnc(Nc3cc(C4CC4)cc(N4CC(N5CCOCC5)C4)c3)n2)cn1` [Compound 539, N-[3-cyclopropyl-5-(3-morpholinoazetidin-1-yl)phenyl]-1-pyrazin-2-yl-1,2,4-triazol-3-amine]?
**A.** fold induction at 1 µM: 10 to 100; fold induction at 10 µM: 10 to 100

**Q.** How did the fold induction at 1 µM turn out when `Fc1cc(F)cc(-n2cnc(Nc3cc(C(F)(F)F)cc(N4CCN(C5COC5)CC4)n3)n2)c1` [Compound 540, N-[1-(3,5-difluorophenyl)-1,2,4-triazol-3-yl]-6-[4-(oxetan-3-yl)piperazin-1-yl]-4-(trifluoromethyl)pyridin-2-amine] was run?
**A.** The fold induction at 1 µM was 10 to 100.

**Q.** What about the fold induction at 10 µM of the same molecule?
**A.** The fold induction at 10 µM was 100 to 1000.

**Q.** `Cc1cc(Nc2ncn(-c3cc(F)cc(F)c3)n2)cc(N2CCCC3(COC3)C2)c1` [Compound 541, 1-(3,5-difluorophenyl)-N-[3-methyl-5-(2-oxa-8-azaspiro[3.5]nonan-8-yl)phenyl]-1,2,4-triazol-3-amine] was tested. Which fold induction at 1 µM did it give?
**A.** The fold induction at 1 µM was at most 1.

**Q.** What about the fold induction at 10 µM of the same molecule?
**A.** The fold induction at 10 µM was 1 to 10.

**Q.** Which results are given for `Cc1cc(Nc2ncn(-c3cc(F)cc(F)c3)n2)cc(N2CC(N3CCCC3=O)C2)c1` [Compound 542, 1-[1-[3-[[1-(3,5-difluorophenyl)-1,2,4-triazol-3-yl]amino]-5-methyl-phenyl]azetidin-3-yl]pyrrolidin-2-one]?
**A.** fold induction at 1 µM: 10 to 100; fold induction at 10 µM: 10 to 100

**Q.** Which fold induction at 1 µM does the source give for `Cc1cc(Nc2ncn(-c3cc(F)cc(F)c3)n2)cc(N2CCOC3(CCC3)C2)c1` [Compound 543, 1-(3,5-difluorophenyl)-N-[3-methyl-5-(9-oxa-6-azaspiro[3.5]nonan-6-yl)phenyl]-1,2,4-triazol-3-amine] here?
**A.** The fold induction at 1 µM was 1 to 10.

**Q.** What about the fold induction at 10 µM of the same molecule?
**A.** The fold induction at 10 µM was 1 to 10.

**Q.** `CCc1cc(Nc2ncn(-c3cncnc3)n2)cc(N2CC(N3CCOCC3)C2)c1` [Compound 544, N-[3-ethyl-5-(3-morpholinoazetidin-1-yl)phenyl]-1-pyrimidin-5-yl-1,2,4-triazol-3-amine] was tested. Which fold induction at 1 µM did it give?
**A.** The fold induction at 1 µM was 1 to 10.

**Q.** And the fold induction at 10 µM?
**A.** The fold induction at 10 µM was 10 to 100.

**Q.** How did the fold induction at 1 µM turn out when `Fc1cccc(-n2cnc(Nc3cc(C(F)(F)F)cc(N4CCN(C5COC5)CC4)n3)n2)c1` [Compound 545, N-[1-(3-fluorophenyl)-1,2,4-triazol-3-yl]-6-[4-(oxetan-3-yl)piperazin-1-yl]-4-(trifluoromethyl)pyridin-2-amine] was run?
**A.** The fold induction at 1 µM was 10 to 100.

**Q.** What about the fold induction at 10 µM of the same molecule?
**A.** Its fold induction at 10 µM is 10 to 100.

**Q.** For `Fc1ccc(-n2cnc(Nc3cc(C(F)(F)F)cc(N4CCN(C5COC5)CC4)n3)n2)cc1F` [Compound 546, N-[1-(3,4-difluorophenyl)-1,2,4-triazol-3-yl]-6-[4-(oxetan-3-yl)piperazin-1-yl]-4-(trifluoromethyl)pyridin-2-amine], which fold induction at 1 µM is on record?
**A.** The fold induction at 1 µM was 1 to 10.

**Q.** What about the fold induction at 10 µM of the same molecule?
**A.** The fold induction at 10 µM was 10 to 100.

**Q.** For `FC(F)(F)c1cc(Nc2ncn(-c3ccccc3)n2)nc(N2CCN(C3COC3)CC2)c1` [Compound 547, 6-[4-(oxetan-3-yl)piperazin-1-yl]-N-(1-phenyl-1,2,4-triazol-3-yl)-4-(trifluoromethyl)pyridin-2-amine], which fold induction at 1 µM is on record?
**A.** Its fold induction at 1 µM is 100 to 1000.

**Q.** What about the fold induction at 10 µM of the same molecule?
**A.** The fold induction at 10 µM was 10 to 100.

**Q.** With `FC(F)(F)c1cc(Nc2ncn(-c3ccccn3)n2)nc(N2CCN(C3COC3)CC2)c1` [Compound 548, 6-[4-(oxetan-3-yl)piperazin-1-yl]-N-[1-(2-pyridyl)-1,2,4-triazol-3-yl]-4-(trifluoromethyl)pyridin-2-amine] as the molecule, how does the fold induction at 1 µM read?
**A.** The fold induction at 1 µM was 1 to 10.

**Q.** What about the fold induction at 10 µM of the same molecule?
**A.** Its fold induction at 10 µM is 1 to 10.

**Q.** `CCc1cc(Nc2ncn(-c3cncnc3)n2)cc(N2CCN(C3COC3)CC2)c1` [Compound 549, N-[3-ethyl-5-[4-(oxetan-3-yl)piperazin-1-yl]phenyl]-1-pyrimidin-5-yl-1,2,4-triazol-3-amine] was tested. Which fold induction at 1 µM did it give?
**A.** Its fold induction at 1 µM is 1 to 10.

**Q.** And the fold induction at 10 µM?
**A.** The fold induction at 10 µM was 10 to 100.

**Q.** How did the fold induction at 1 µM turn out when `CC(C)(C)c1cc(Nc2ncn(-c3cncnc3)n2)cc(N2CCN(C3COC3)CC2)c1` [Compound 550, N-[3-tert-butyl-5-[4-(oxetan-3-yl)piperazin-1-yl]phenyl]-1-pyrimidin-5-yl-1,2,4-triazol-3-amine] was run?
**A.** Its fold induction at 1 µM is 10 to 100.

**Q.** And the fold induction at 10 µM?
**A.** The fold induction at 10 µM was 10 to 100.

**Q.** Which results are given for `Cc1cc(Nc2ncn(-c3cc(F)cc(F)c3)n2)cc(N2CC(C)(O)C2)c1` [Compound 551, 1-[3-[[1-(3,5-difluorophenyl)-1,2,4-triazol-3-yl]amino]-5-methyl-phenyl]-3-methyl-azetidin-3-ol]?
**A.** fold induction at 1 µM: 100 to 1000; fold induction at 10 µM: 10 to 100

**Q.** `Cc1cc(Nc2ncn(-c3cc(F)cc(F)c3)n2)cc(N2CCNC(C(F)(F)F)C2)c1` (stereo not drawn) [Compound 552, 1-(3,5-difluorophenyl)-N-[3-methyl-5-[3-(trifluoromethyl)piperazin-1-yl]phenyl]-1,2,4-triazol-3-amine] was tested. Which fold induction at 1 µM did it give?
**A.** The fold induction at 1 µM was 10 to 100.

**Q.** And the fold induction at 10 µM?
**A.** The fold induction at 10 µM was 10 to 100.

**Q.** What does the source list for `CCC1(O)CN(c2cc(C)cc(Nc3ncn(-c4cc(F)cc(F)c4)n3)c2)C1` [Compound 553, 1-[3-[[1-(3,5-difluorophenyl)-1,2,4-triazol-3-yl]amino]-5-methyl-phenyl]-3-ethyl-azetidin-3-ol]?
**A.** fold induction at 1 µM: 100 to 1000; fold induction at 10 µM: 10 to 100

**Q.** What does the source list for `CCNC(=O)N1CCN(c2cc(C(F)(F)F)cc(Nc3ncn(-c4cc(F)cc(F)c4)n3)n2)CC1` [Compound 554, 4-[6-[[1-(3,5-difluorophenyl)-1,2,4-triazol-3-yl]amino]-4-(trifluoromethyl)-2-pyridyl]-N-ethyl-piperazine-1-carboxamide]?
**A.** fold induction at 1 µM: 10 to 100; fold induction at 10 µM: 10 to 100

**Q.** For `CC(=O)N1CCN(c2cc(C(F)(F)F)cc(Nc3ncn(-c4cc(F)cc(F)c4)n3)n2)CC1` [Compound 555, 1-[4-[6-[[1-(3,5-difluorophenyl)-1,2,4-triazol-3-yl]amino]-4-(trifluoromethyl)-2-pyridyl]piperazin-1-yl]ethanone], which fold induction at 1 µM is on record?
**A.** Its fold induction at 1 µM is 10 to 100.

**Q.** What about the fold induction at 10 µM of the same molecule?
**A.** The fold induction at 10 µM was 100 to 1000.

**Q.** How did the fold induction at 1 µM turn out when `Fc1cc(F)cc(-n2cnc(Nc3cc(C(F)(F)F)cc(N4CCNCC4)n3)n2)c1` [Compound 556, N-[1-(3,5-difluorophenyl)-1,2,4-triazol-3-yl]-6-piperazin-1-yl-4-(trifluoromethyl)pyridin-2-amine] was run?
**A.** The fold induction at 1 µM was 1 to 10.

**Q.** What about the fold induction at 10 µM of the same molecule?
**A.** Its fold induction at 10 µM is 1 to 10.

**Q.** What does the source list for `CC(C)(C)OC(=O)N1CCN(c2cc(C(F)(F)F)cc(Nc3ncn(-c4cc(F)cc(F)c4)n3)n2)CC1` [Compound 557, tert-butyl 4-[6-[[1-(3,5-difluorophenyl)-1,2,4-triazol-3-yl]amino]-4-(trifluoromethyl)-2-pyridyl]piperazine-1-carboxylate]?
**A.** fold induction at 1 µM: ≤ 1; fold induction at 10 µM: ≤ 1

**Q.** For `Cc1cc(Nc2ncn(-c3cc(F)ccc3F)n2)cc(N2CCNCC2)c1` [Compound 558, 1-(2,5-difluorophenyl)-N-(3-methyl-5-piperazin-1-yl-phenyl)-1,2,4-triazol-3-amine], which fold induction at 1 µM is on record?
**A.** The fold induction at 1 µM was 10 to 100.

**Q.** And the fold induction at 10 µM?
**A.** The fold induction at 10 µM was at most 1.

**Q.** Which results are given for `CCCc1cc(Nc2ncn(-c3ccc(F)c(F)c3)n2)cc(N2CCN(C3COC3)CC2)c1` [Compound 559, 1-(3,4-difluorophenyl)-N-[3-[4-(oxetan-3-yl)piperazin-1-yl]-5-propyl-phenyl]-1,2,4-triazol-3-amine]?
**A.** fold induction at 1 µM: 100 to 1000; fold induction at 10 µM: 10 to 100

**Q.** Which results are given for `Cc1cc(Nc2ncn(-c3cc(F)cc(F)c3)n2)nc(N2CCOCC2)c1` [Compound 560, N-[1-(3,5-difluorophenyl)-1,2,4-triazol-3-yl]-4-methyl-6-morpholino-pyridin-2-amine]?
**A.** fold induction at 1 µM: 10 to 100; fold induction at 10 µM: 100 to 1000
